The target of the assay is Serine/threonine-protein kinase 33 (Homo sapiens, UniProt Q9BYT3). Put plainly: STK33 kinase inhibitors, dose response, biochemical, luminescence, cell-free, retest (AID 2821).
Sequence of Serine/threonine-protein kinase 33 (Q9BYT3 whole entry): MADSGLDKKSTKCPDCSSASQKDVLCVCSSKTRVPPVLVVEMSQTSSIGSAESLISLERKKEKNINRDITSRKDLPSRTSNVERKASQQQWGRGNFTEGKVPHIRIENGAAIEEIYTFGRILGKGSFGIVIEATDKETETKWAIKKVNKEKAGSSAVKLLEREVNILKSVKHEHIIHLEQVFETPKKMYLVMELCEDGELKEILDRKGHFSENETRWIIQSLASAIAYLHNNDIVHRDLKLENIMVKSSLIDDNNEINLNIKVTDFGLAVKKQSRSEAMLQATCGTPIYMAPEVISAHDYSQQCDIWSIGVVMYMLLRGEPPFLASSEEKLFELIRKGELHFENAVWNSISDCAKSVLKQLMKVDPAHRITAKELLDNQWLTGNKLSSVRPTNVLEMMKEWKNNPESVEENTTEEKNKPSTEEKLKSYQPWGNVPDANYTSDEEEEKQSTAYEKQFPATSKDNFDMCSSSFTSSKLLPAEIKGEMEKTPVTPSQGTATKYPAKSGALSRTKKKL

The EC50 is the midpoint of the concentration-response curve. Low readings indicate an effect from little substance, high ones a need for much substance. For the compound `O=C1N=c2ccccc2=C1NNc1ccc(C(=O)O)cc1` [4-[2-(2-oxidanylideneindol-3-yl)hydrazinyl]benzoic acid], a half-maximal effect (EC50) was put at 36.8 µM.
The value for `CN1CCCC1CCNc1ccc2oc3ccccc3c(=O)c2c1` (configuration not stated) [MLS001249997] was above 120 µM; that for `CC1CCN(C2=NC(=O)/C(=C/c3ccc(O)cc3)S2)CC1` [MLS001205076] was 10.4 µM; that for `COc1ccc(O)c(-c2nc(N)nc(N)n2)c1` [(6Z)-6-[4,6-bis(azanyl)-1H-1,3,5-triazin-2-ylidene]-4-methoxy-cyclohexa-2,4-dien-1-one] was 8.14 µM.
Then `O=C(Nc1cc(C(=O)Nc2ccccc2C(=O)O)cc(C(=O)Nc2ccccc2C(=O)O)c1)c1ccccc1` [SMR000658665], with above 120 µM.
Compound `NC(=O)c1sc2nc(-c3ccco3)ccc2c1N` [3-Amino-6-furan-2-yl-thieno[2,3-b]pyridine-2-carboxylic acid amide] had an EC50 of 25.5 µM.
Then `CCN1C(=O)CC(c2ccccc2)N(C2CCCC2)c2nc(Nc3ccc(C(=O)NC4CCN(C)CC4)cc3OC)ncc21` (configuration not stated), with 7.93 µM.
Then `O=C1c2ccccc2C(=O)C1c1ccccn1`, with 5.49 µM.
The value for `O=C(O)c1ccc(N=Cc2c(O)ccc3oc4c(c23)CCCC4)cc1` [4-{[1-(2-Hydroxy-6,7,8,9-tetrahydro-dibenzofuran-1-yl)-meth-(E)-ylidene]-amino}-benzoic acid] was 6.2 µM; that for `O=C1c2c(O)ccc(O)c2C(=O)c2c(NCCNCCO)ccc(NCCNCCO)c21` [SMR000058480] was 5.88 µM.
`COc1ccc(C2=CC3=C(Br)C(=O)C(C)(O)C(=O)C3=CO2)cc1` (configuration not stated) [5-bromanyl-3-(4-methoxyphenyl)-7-methyl-7-oxidanyl-isochromene-6,8-dione] registered an EC50 of 86 µM. Compared with the last compound, the EC50 is about 15-fold higher.
For `O=C1NC(=O)/C(=C/c2ccc(O)cc2)S1` [SMR000324608], the half-maximal effective concentration (EC50) worked out at 12.4 µM.
The value for `COc1cc(C=NNC2=c3ccccc3=NC2=O)ccc1O` was 9.23 µM; that for `COc1ccc(N=CC2C(=O)Nc3ccccc32)cc1OC` (configuration not stated) was 5.22 µM.
The value for `O=C1N=C(NCc2ccccc2)SC1=Cc1ccc(O)cc1` [SMR000217101] was 2.11 µM; that for `CS(=O)(=O)Nc1ccc(-c2cc(C=C3SC(N)=NC3=O)c[nH]c2=O)cc1` [N-[4-[5-[(Z)-(2-azanyl-4-oxidanylidene-1,3-thiazol-5-ylidene)methyl]-2-oxidanylidene-1H-pyridin-3-yl]phenyl]methanesulfonamide] was 8.09 µM.
Then `O=C(O)c1ccc(NC(=O)c2cccc(C(=O)Nc3ccc(C(=O)O)cc3)n2)cc1` [4-[[6-[(4-carboxyphenyl)carbamoyl]pyridin-2-yl]carbonylamino]benzoic acid], with 28.3 µM; and `Cc1c(/C=C/C(=O)c2ccc(O)cc2)cnn1C` [MLS000578554], with 22.2 µM.
The compound `CCN1CCN(c2cc(C)c3cc(NC(=O)c4ccc(Br)o4)ccc3n2)CC1` [5-bromo-N-[2-(4-ethylpiperazin-1-yl)-4-methylquinolin-6-yl]furan-2-carboxamide] returned an EC50 of 18.4 µM.
Then `O=C1NC2c3ccccc3C(=O)N2c2c1cnn2-c1ccccc1` (configuration not stated) [MLS000028140], with above 120 µM; and `CCN(CC)C(=O)c1ccc(NC(=O)Nc2ccccc2F)cc1` [SMR000376874], with above 120 µM; and `COc1cc2c(ccc3cc(OC)c(OC)c(O)c32)cc1O` [3,6,7-trimethoxyphenanthrene-2,5-diol], with 27.4 µM.
Then `CC(N=Nc1ccnc2cc(Cl)ccc12)c1ccc(O)cc1` (configuration not stated) [4-[1-[(7-chloro-4-quinolinyl)hydrazo]ethylidene]-1-cyclohexa-2,5-dienone], with 22.9 µM.
The value for `O=NCc1c(Nc2ccccc2)nc2ccccn2c1=O` [(3Z)-3-[(hydroxyamino)methylene]-2-phenylimino-pyrido[1,2-a]pyrimidin-4-one] was 6.22 µM.
The compound `OCCN1CCN(c2nc(-c3ccccc3O)nc3ccccc23)CC1` [MLS001165184] gave an EC50 of 23.1 µM.
Then `COC(=O)c1ccccc1NC(=O)N1CCN(C/C=C/c2ccccc2)CC1`, with 8.73 µM.
As to `CCn1c(C)nc2cc(-c3nc4n(n3)Cc3ccccc3-4)ccc21` [2-(1-ethyl-2-methyl-5-benzimidazolyl)-5H-[1,2,4]triazolo[5,1-a]isoindole], the EC50 came to 11 µM.
The value for `NC(=O)NN=Cc1c(O)ccc2oc3c(c12)CCCC3` [SMR000414386] was 1.24 µM; that for `COC(=O)Nc1nnc(Cc2ccccc2)s1` [N-[5-(phenylmethyl)-1,3,4-thiadiazol-2-yl]carbamic acid methyl ester] was above 120 µM; that for `CN1CCN(c2nc(-c3ccccc3O)nc3ccccc23)CC1` [SMR000539302] was 42.8 µM.
The value for `Nc1nc(N)nc(-c2cc(O)ccc2O)n1` [(6E)-6-(4,6-diamino-1H-1,3,5-triazin-2-ylidene)-4-hydroxycyclohexa-2,4-dien-1-one] was 7.05 µM; that for `Cc1cccc(N2CCN(CCCNC(=O)c3ccc(NC(=O)C4=CSCCO4)cc3)CC2C)c1` (configuration not stated) was 7.97 µM; that for `COc1ccccc1Nc1oc2cc(=O)ccc-2cc1C(N)=O` [2-(2-methoxyanilino)-7-oxo-1-benzopyran-3-carboxamide] was 30.9 µM.
Compound `C/C=C/Cn1c(SCc2ccc(Cl)cc2)nc2c1c(=O)[nH]c(=O)n2C` [7-[(E)-but-2-enyl]-8-[(4-chlorophenyl)methylsulfanyl]-3-methylpurine-2,6-dione] registered a concentration giving a half-maximal response (EC50) above 120 µM.
The value for `CNC(=S)Nc1cccc(-c2cnc3ccccc3n2)c1` was above 120 µM.
The value for `CCCCC(CC)CNC(=N)NC(=N)NCCCCCCNC(=N)NC(=N)NCC(CC)CCCC` (configuration not stated) [MLS002153995] was above 120 µM.
The value for `O=C1Nc2ccccc2C1=Cc1cnc[nH]1` [SMR000180717] was 7.94 µM; that for `O=C(O)Cn1cc(C=c2sc3nc4ccccc4n3c2=O)c2ccccc21` [SMR000298358] was 14.2 µM.
Compound `COC(=O)c1ccc(COc2ccccc2/C=C/C(=O)c2ccc(OCC(=O)O)cc2)cc1` [SMR000590970] came in with a concentration for a half-maximal effect (EC50) of 1.86 µM.
The value for `COc1c(O)cc2oc(-c3ccc(O)c(O)c3)cc(=O)c2c1O` was 11 µM.
The value for `COc1cc(C=C2SC(Nc3ccccc3OC)=NC2=O)ccc1O` [5-(4-Hydroxy-3-methoxy-benzylidene)-2-(2-methoxy-phenylimino)-thiazolidin-4-one] was 4 µM.
The value for `N#CC(C(=O)c1ccco1)c1nc2ccccc2[nH]1` (configuration not stated) [SMR000305206] was 8.49 µM.
`COc1ccc(-c2nc(-c3ccccn3)no2)cc1` [5-(4-methoxyphenyl)-3-(2-pyridinyl)-1,2,4-oxadiazole] had a 50% effective concentration (EC50) above 120 µM.
Then `S=C(Nc1cccc(Cl)c1)Nc1ccc2cn[nH]c2c1` [SMR000261299], with above 120 µM; and `Cn1c(/N=N/c2ccccc2)nc2ccccc21` [(1-methyl-2-benzimidazolyl)-phenyldiazene], with above 120 µM.
`CN(C)/C=C/C(=O)c1ccc2noc(-c3cccc(F)c3)c2c1` [(E)-3-(dimethylamino)-1-[3-(3-fluorophenyl)-2,1-benzoxazol-5-yl]-2-propen-1-one]: the response was half-maximal at 18.7 µM (EC50).
Then `O=c1c(O)c(-c2ccc(O)c(O)c2)oc2cc(O)cc(O)c12` [2-(3,4-dihydroxyphenyl)-3,5,7-trihydroxy-chromone;hydrate], with 12.4 µM; and `CCNc1nc(N)nc(-c2cc(Cl)ccc2O)n1` [(6E)-6-[6-amino-4-(ethylamino)-1H-1,3,5-triazin-2-ylidene]-4-chloro-1-cyclohexa-2,4-dienone], with 5.04 µM; and `N#C/C(=C\c1ccc(O)c(O)c1)C(=O)c1ccc(O)c(O)c1` [(2E)-3-(3,4-dihydroxyphenyl)-2-[(3,4-dihydroxyphenyl)carbonyl]prop-2-enenitrile], with 44.9 µM.
The value for `Cc1nc[nH]c1C(=O)NN=Cc1c(Cl)cccc1Cl` [MLS001182271] was above 120 µM; that for `COc1cc(C=CC(=O)CC(=O)C=Cc2ccc(O)c(OC)c2)ccc1O` was 0.71 µM; that for `CCn1cc(/C=C/C(=O)c2ccc(O)cc2)c(C)n1` [(E)-3-(1-ethyl-3-methyl-4-pyrazolyl)-1-(4-hydroxyphenyl)-2-propen-1-one] was 9.79 µM.
Then `c1coc(C2Nc3ccccc3-c3nc4ccccc4n32)c1` (configuration not stated) [MLS000055458], with 30.8 µM.
Take `CC(C)(C)c1[nH]nc2c1C(=O)c1ccccc1-2` [SMR000528110]: the concentration giving a half-maximal response (EC50) is 25 µM. The EC50 values of the last two compounds are within 1.5-fold of each other.
`S=C(Nc1cccnc1)Nc1cccc2cnccc12` [SMR000348842] had an EC50 above 120 µM.
Regarding `CNC(=O)c1cnc2ccc(S(=O)(=O)Nc3ccccc3F)cc2c1O`, the EC50 was above 120 µM.
Then `Cc1nn(C)cc1/C=C/C(=O)c1ccc(O)cc1`, with 29 µM; and `COc1cc(C=Nn2c(C3CCCCC3)n[nH]c2=S)ccc1O` [(4E)-4-[[(3-cyclohexyl-5-sulfanylidene-1H-1,2,4-triazol-4-yl)amino]methylidene]-2-methoxy-cyclohexa-2,5-dien-1-one], with 22 µM; and `Cc1cccc(-c2nc3ccccc3c3nncn23)c1` [SMR000106108], with 22.5 µM.
The compound `Cc1cc(C=C2C(=O)c3ccccc3C2=O)c(C)n1-c1ccc(C(=O)O)cc1` [4-[3-[(1,3-dioxo-2-indenylidene)methyl]-2,5-dimethyl-1-pyrrolyl]benzoic acid] had an EC50 of 19.3 µM.
Then `S=C(Nc1ccccc1)Nc1ccc2c[nH]nc2c1` [MLS000516600], with 19.5 µM; and `c1ccc(Nc2ccnc(Nc3ccccc3)n2)cc1` [N*2*,N*4*-Diphenyl-pyrimidine-2,4-diamine], with 14.9 µM.
`O=C1Nc2ccccc2C1C=Nc1ccc2c(c1)OCO2` (configuration not stated) [(3Z)-3-[(1,3-benzodioxol-5-ylamino)methylidene]-1H-indol-2-one]: the EC50 was 11.3 µM.
The value for `c1cncc(C2Nc3ccccc3-c3nc4ccccc4n32)c1` (configuration not stated) [MLS000098034] was 27.1 µM.
The value for `COc1ccc(CNc2nc3ccccc3s2)cc1OC` [SMR000523783] was above 120 µM; that for `Nc1nc(-c2cc(O)ccc2[N+](=O)[O-])cc(-c2ccccc2)c1[N+](=O)[O-]` [SMR000504332] was below 0.1 µM; that for `CN(C)/C=C/C(=O)c1ccc2noc(-c3ccccc3)c2c1` [SMR000549693] was 15.9 µM.

The values above are taken from BindingDB's records for doi:10.7270/Q2B27SRF (Broad Institute, 2010).
